Experimental data taken from patent US6512099B2, “Roselipin derivative” (Kitasato Institute, priority 2001, dated 2003).

Key:
[1] = test system: Bacillus subtilis KB27; assay: Paper disk growth inhibition circle; format: cell-based; conditions: Bacillus subtilis KB27 (synthetic medium); 10 μg on 6 mm filter paper
[2] = test system: Mucor racemosus KF223; assay: Paper disk growth inhibition circle; format: cell-based; conditions: 10 μg on 6 mm filter paper
[3] = biological target: diacylglycerol acyltransferase; assay: Inhibitory activity against diacylglycerol acyltransferase derived from rat (rat liver microsome fraction); format: biochemical; conditions: 23° C., 15 minutes, read-out: concentration which inhibited 50% of the diacylglycerol acyltransferase
Experimental: A diacylglycerol acyltransferase activity was measured by means of a partially modified version of a method of Mayorek and Bar-Tana (Journal of Biological Chemistry, vol. 260, pp. […], 1985). That is, using a microsome fraction prepared from a rat liver as an enzyme source, 0.75 mM 1,2-dioleoyl-sn-glycerol and 30 μM [1-^14C]palmitoyl-CoA (0.02 μCi) were added to 175 mM tris-hydrochloric acid (HCl)(pH: 8.0) buffer containing 8 mM MgCl2, 1 mg/ml bovine serum albumin and 2.5 mM diisopropyl fluorophosphonate to a total volume of 200 μL. The mixture was allowed to react at 23° C. for 15 minutes. […] Thereafter, the radioactivity of a triacylglycerol fraction was measured by an RI radio scanner (manufactured by AMBIS CO., LTD.) to measure the diacylglycerol acyltransferase activity.

[4] = test system: Raji cell derived from human Burkitt lymphoma; assay: Inhibitory activity against production of triacylglycerol in human-derived cell (Raji); format: cell-based; conditions: 0.5 h, [1-14C]oleic acid, 37° C., 30 minutes, read-out: concentration which inhibited 50% of production of triacylglycerol
Experimental: An influence on production of triacylglycerol was examined in accordance with a method by TOMODA et al. (Journal of Biological Chemistry, vol. 266, pp. 4,212 to 4,219, 1991) by use of a human-derived cell (Raji cell derived from human Burkitt lymphoma). 200 μl of 2.7×10^5 cells/ml of Raji cell solution [1-^14C]oleic acid (0.02 μCi) was allowed to react at 37° C. for 30 minutes. After all lipids were extracted from a mixed solution of chloroform and methanol (mixing ratio=1:2), a measurement was carried out by use of the same method as used for the inhibitory activity against diacylglycerol acyltransferase derived from a rat. The concentrations of the roselipin R-3A, R-3B, R-4 and R-5 compounds which inhibited 50% of production of triacylglycerol were measured.

[5] = test system: Acholeplasma laidlawii KB174; assay: Paper disk growth inhibition circle; format: cell-based; conditions: 10 μg on 6 mm filter paper
[6] = test system: Pyricularia oryzae KB180; format: cell-based; conditions: 10 μg on 6 mm filter paper

SMILES	Diameter of Inhibition Circle [1] [mm]	Diameter of Inhibition Circle [2] [mm]	IC50 [3] [µM]	IC50 [4] [µM]	Diameter of Inhibition Circle [5] [mm]	Diameter of Inhibition Circle [6] [mm]
CCC(C)CC(C)CC(C)C(O)C(C)/C=C(\C)C(O)C(C)/C=C(\C)C(O)C(C)/C=C(\C)C(=O)OC[C@@H](O)[C@@H](O)[C@H](O)CO (stereo partly shown) [roselipin R-3A]	10	14	60	11	10	
CCC(C)CC(C)CC(C)C(O)C(C)/C=C(\C)C(O)C(C)/C=C(\C)C(O)C(C)/C=C(\C)C(=O)OC[C@@H](O)[C@H](O)[C@H](O)CO (stereo partly shown) [roselipin R-3B]			33	10		
CCC(C)CC(C)CC(C)C(O[C@@H]1OC(CO)[C@@H](O)C(O)C1O)C(C)/C=C(\C)C(O)C(C)/C=C(\C)C(O)C(C)/C=C(\C)C(=O)OC (stereo partly shown) [roselipin R-4]		12	> 762	200		16
CCC(C)CC(C)CC(C)C(O)C(C)/C=C(\C)C(O)C(C)/C=C(\C)C(OC)C(C)/C=C(\C)C(=O)OC (stereo not shown) [roselipin R-5]			> 984	250		
